Laboratory results: PubChem BioAssay AID1919000 (Molecular Pharmacology Branch, DTP, NCI, 2023)

Test system: 653999-131-R-J2-PDC complex spheroids, growth % test/control
Experiment: Anticancer human tumor 653999-131-R-J2-PDC patient-derived lung adenocarcinoma cell line growth inhibition [AhR]
Conditions: for IC50: curve of first compound; for viability, T/C: stronger effect = lower value
Procedure, shortened: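 Complex tumor spheroids co-cultured with HUVEC and human MSC stroma; AhR antagonists tested in combination with standard-of-care and investigational agents. Top concentration at or near clinical Cmax (else 10 microM), half-log dilutions; growth expressed as percent test/control.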

[1] = second compound 0.1 µM, first compound 0.00316 µM
[2] = second compound 0.1 µM, first compound 0.01 µM
[3] = second compound 0.1 µM, first compound 0.0316 µM
[4] = second compound 0.1 µM, first compound 0.1 µM
[5] = second compound 0.316 µM, first compound 0.00316 µM
[6] = second compound 0.316 µM, first compound 0.01 µM
[7] = second compound 0.316 µM, first compound 0.0316 µM
[8] = second compound 0.316 µM, first compound 0.1 µM
[9] = second compound 1 µM, first compound 0.00316 µM
[10] = second compound 1 µM, first compound 0.01 µM
[11] = second compound 1 µM, first compound 0.0316 µM
[12] = second compound 1 µM, first compound 0.1 µM
[13] = second compound 3.16 µM, first compound 0.00316 µM
[14] = second compound 3.16 µM, first compound 0.01 µM
[15] = second compound 3.16 µM, first compound 0.0316 µM
[16] = second compound 3.16 µM, first compound 0.1 µM
[17] = second compound 10 µM, first compound 0.00316 µM
[18] = second compound 10 µM, first compound 0.01 µM
[19] = second compound 10 µM, first compound 0.0316 µM
[20] = second compound 10 µM, first compound 0.1 µM
[21] = second compound 0.1 µM, first compound 0.316 µM
[22] = second compound 0.1 µM, first compound 1 µM
[23] = second compound 0.1 µM, first compound 3.16 µM
[24] = second compound 0.1 µM, first compound 10 µM
[25] = second compound 0.316 µM, first compound 0.316 µM
[26] = second compound 0.316 µM, first compound 1 µM
[27] = second compound 0.316 µM, first compound 3.16 µM
[28] = second compound 0.316 µM, first compound 10 µM
[29] = second compound 1 µM, first compound 0.316 µM
[30] = second compound 1 µM, first compound 1 µM
[31] = second compound 1 µM, first compound 3.16 µM
[32] = second compound 1 µM, first compound 10 µM
[33] = second compound 3.16 µM, first compound 0.316 µM
[34] = second compound 3.16 µM, first compound 1 µM
[35] = second compound 3.16 µM, first compound 3.16 µM
[36] = second compound 3.16 µM, first compound 10 µM
[37] = second compound 10 µM, first compound 0.316 µM
[38] = second compound 10 µM, first compound 1 µM
[39] = second compound 10 µM, first compound 3.16 µM
[40] = second compound 10 µM, first compound 10 µM
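Note: spheroids exposed to agents for seven days.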
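Throughout, for viability, T/C: 100% = DMSO vehicle control viability.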

SMILES | IC50 (second compound 0.1 µM) [nM] | IC50 (second compound 0.316 µM) [nM] | IC50 (second compound 1 µM) [nM] | IC50 (second compound 3.16 µM) [nM] | IC50 (second compound 10 µM) [nM] | viability, T/C [3] [%] | viability, T/C [4] [%] | viability, T/C [7] [%] | viability, T/C [8] [%] | viability, T/C [11] [%] | viability, T/C [12] [%] | viability, T/C [15] [%] | viability, T/C [16] [%] | viability, T/C [19] [%] | viability, T/C [20] [%] | viability, T/C [21] [%] | viability, T/C [22] [%] | viability, T/C [25] [%] | viability, T/C [26] [%] | viability, T/C [29] [%] | other results
COc1cc(C2c3cc4c(cc3C(OC3OC5COC(C)OC5C(O)C3O)C3COC(=O)C23)OCO4)cc(OC)c1O (stereo not given) + Cc1cncc(-c2nc(NCCc3c[nH]c4ccccc34)c3ncn(C(C)C)c3n2)c1 | 841 | 732 | 1190 | 1640 | 44 | 92.3 | 94.7 | 91 | 79.7 | 93.1 | 84.3 | 96.4 | 85.6 | 50.2 | 47.1 | 58.6 | 51.5 | 58.1 | 45.6 | 71 | viability, T/C [23]: 37.9%; viability, T/C [24]: 28.6%; viability, T/C [27]: 39%; viability, T/C [28]: 28.4%; viability, T/C [30]: 49.3%; viability, T/C [31]: 40.9%; viability, T/C [32]: 29%; viability, T/C [33]: 69%; viability, T/C [34]: 54.5%; viability, T/C [35]: 44.4%; viability, T/C [36]: 31.2%; viability, T/C [37]: 46.2%; viability, T/C [38]: 36.3%; viability, T/C [39]: 31.6%; viability, T/C [40]: 33.8%
Nc1ccn(C2OC(CO)C(O)C2(F)F)c(=O)n1 (stereo not given) + Cc1cncc(-c2nc(NCCc3c[nH]c4ccccc34)c3ncn(C(C)C)c3n2)c1 | 211 | 222 | 378 | 554 | 166 | 67.8 | 57.9 | 70.9 | 60.1 | 80.1 | 66.8 | 82.4 | 70 | 61 | 55.8 | 45.5 | 38.2 | 45.5 | 38.4 | 50.1 | viability, T/C [23]: 34.4%; viability, T/C [24]: 33.4%; viability, T/C [27]: 38.5%; viability, T/C [28]: 35.4%; viability, T/C [30]: 42.4%; viability, T/C [31]: 38.5%; viability, T/C [32]: 33.8%; viability, T/C [33]: 56.5%; viability, T/C [34]: 43.5%; viability, T/C [35]: 39.6%; viability, T/C [36]: 41.9%; viability, T/C [37]: 42.4%; viability, T/C [38]: 43.4%; viability, T/C [39]: 33.3%; viability, T/C [40]: 33.2%
Nc1ncn(C2CC(O)C(CO)O2)c(=O)n1 (stereo not given) + Cc1cncc(-c2nc(NCCc3c[nH]c4ccccc34)c3ncn(C(C)C)c3n2)c1 | > 1000 | > 1000 | > 1000 | > 1000 | 210 | 92.3 | 86.5 | 90.8 | 85.1 | 99.2 | 99.2 | 106 | 98.3 | 54 | 51.9 | 88.2 | 77.5 | 87.7 | 83.6 | 94.1 | viability, T/C [1]: 96.2%; viability, T/C [2]: 86.1%; viability, T/C [5]: 91.2%; viability, T/C [6]: 94%; viability, T/C [9]: 106%; viability, T/C [10]: 108%; viability, T/C [30]: 82%; viability, T/C [13]: 98.7%; viability, T/C [14]: 95.2%; viability, T/C [33]: 96.9%; viability, T/C [34]: 90.2%; viability, T/C [17]: 54.6%; viability, T/C [18]: 52.4%; viability, T/C [37]: 49.2%; viability, T/C [38]: 47.2%

Now those with a lower IC50 (second compound 0.1 µM), led by results:

IC50 (second compound 0.1 µM) [nM] | IC50 (second compound 0.316 µM) [nM] | IC50 (second compound 1 µM) [nM] | IC50 (second compound 3.16 µM) [nM] | IC50 (second compound 10 µM) [nM] | SMILES | viability, T/C [3] [%] | viability, T/C [4] [%] | viability, T/C [7] [%] | viability, T/C [8] [%] | viability, T/C [11] [%] | viability, T/C [12] [%] | viability, T/C [15] [%] | viability, T/C [16] [%] | viability, T/C [19] [%] | viability, T/C [20] [%] | viability, T/C [21] [%] | viability, T/C [22] [%] | viability, T/C [25] [%] | viability, T/C [26] [%] | viability, T/C [29] [%] | other results
34.2 | 26.8 | 30.1 | 47.3 | 4.63 | CC[C@@]1(O)C(=O)OCc2c1cc1n(c2=O)Cc2cc3c(CN(C)C)c(O)ccc3nc2-1 + Cc1cncc(-c2nc(NCCc3c[nH]c4ccccc34)c3ncn(C(C)C)c3n2)c1 | 49.5 | 40.4 | 44.6 | 33.7 | 51.4 | 36.3 | 57.5 | 36.2 | 34.1 | 28.5 | – | – | – | – | – | viability, T/C (second compound 0.1 µM, first compound 0.000316 µM): 100%; viability, T/C (second compound 0.1 µM, first compound 0.001 µM): 86.7%; viability, T/C [1]: 88.2%; viability, T/C [2]: 70%; viability, T/C (second compound 0.316 µM, first compound 0.000316 µM): 95.4%; viability, T/C (second compound 0.316 µM, first compound 0.001 µM): 93.2%; viability, T/C [5]: 83%; viability, T/C [6]: 72.8%; viability, T/C (second compound 1 µM, first compound 0.000316 µM): 106%; viability, T/C (second compound 1 µM, first compound 0.001 µM): 117%; viability, T/C [9]: 95%; viability, T/C [10]: 72.3%; viability, T/C (second compound 3.16 µM, first compound 0.000316 µM): 112%; viability, T/C (second compound 3.16 µM, first compound 0.001 µM): 106%; viability, T/C [13]: 91.5%; viability, T/C [14]: 77.4%; viability, T/C (second compound 10 µM, first compound 0.000316 µM): 55.2%; viability, T/C (second compound 10 µM, first compound 0.001 µM): 64.4%; viability, T/C [17]: 54.6%; viability, T/C [18]: 39.3%
< 31.6 | < 31.6 | < 31.6 | 112 | < 31.6 | COc1cccc2c1C(=O)c1c(O)c3c(c(O)c1C2=O)CC(O)(C(=O)CO)CC3OC1CC(N)C(O)C(C)O1 (stereo not given) + Cc1cncc(-c2nc(NCCc3c[nH]c4ccccc34)c3ncn(C(C)C)c3n2)c1 | 50.2 | 38.3 | 50.4 | 37.9 | 51.4 | 44.9 | 56.1 | 50 | 40 | 35.5 | 26.9 | 7.22 | 27.2 | 6.87 | 27.6 | viability, T/C [23]: 3.85%; viability, T/C [24]: 14%; viability, T/C [27]: 3.35%; viability, T/C [28]: 12.9%; viability, T/C [30]: 6.09%; viability, T/C [31]: 3.45%; viability, T/C [32]: 15.4%; viability, T/C [33]: 28.9%; viability, T/C [34]: 4.87%; viability, T/C [35]: 4.59%; viability, T/C [36]: 12.2%; viability, T/C [37]: 21.5%; viability, T/C [38]: 2.46%; viability, T/C [39]: 5.69%; viability, T/C [40]: 7.61%
